US20080269325A1, “Methods to Relieve Pain” (Imperial Innovations Limited, priority 2004, published 2008)
Blank lines part the entries; values can stand above or below the molecule they belong to.

Columns and labels:
FAAH = biological target: T1, FAAH (Rattus norvegicus, UniProt P97612); assay: Inhibition of FAAH catalysed [3H]-AEA hydrolysis; format: biochemical; conditions: for IC50: FAAH catalysed [3H]-AEA hydrolysis, read-out: pI50 (converted)
T1 sequence (P97612 1-579): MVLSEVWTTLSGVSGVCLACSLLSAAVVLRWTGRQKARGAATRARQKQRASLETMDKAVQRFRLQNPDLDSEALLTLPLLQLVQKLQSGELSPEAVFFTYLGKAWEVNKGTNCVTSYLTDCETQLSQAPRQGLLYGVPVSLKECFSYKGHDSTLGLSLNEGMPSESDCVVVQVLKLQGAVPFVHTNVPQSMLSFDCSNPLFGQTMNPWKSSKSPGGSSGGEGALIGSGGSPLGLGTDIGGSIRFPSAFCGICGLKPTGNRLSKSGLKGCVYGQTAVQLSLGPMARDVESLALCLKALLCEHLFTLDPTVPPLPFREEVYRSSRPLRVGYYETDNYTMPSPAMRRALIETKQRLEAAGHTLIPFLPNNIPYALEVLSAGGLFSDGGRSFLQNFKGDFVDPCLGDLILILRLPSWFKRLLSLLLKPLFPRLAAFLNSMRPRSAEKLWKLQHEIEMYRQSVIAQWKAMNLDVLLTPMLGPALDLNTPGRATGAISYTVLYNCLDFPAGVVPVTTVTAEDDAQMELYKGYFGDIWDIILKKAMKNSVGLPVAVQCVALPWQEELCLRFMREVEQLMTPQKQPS
Experimental: (§1) The FAAH inhibitory compound that we are investigating is an analogue of PEA called palmitoylallylamide (L-29). It was developed by Dr Didier Lambert and team at the Unité de Chimie pharmaceutique et de Radiopharmacie, Universite catholique de Louvain, Brussels, Belgium. The capacity of L-29 to inhibit FAAH was calculated by measuring the ability of the compound to inhibit FAAH catalysed [^3H]-AEA hydrolysis (maximum inhibition and pI50 calculated). […] Binding to CB1 and CB2 receptors was also calculated by measuring the displacement of radioactive [^3H]-CP55,940 from a cell line transfected with CB1 receptors and radioactive [^3H]-WIN55,212-2 from a cell line transfected with CB2 receptors.

CB1 receptors = biological target: T2, CB1 receptors (Homo sapiens, UniProt P21554); assay: Displacement of [3H]-CP55,940 from a cell line transfected with CB1 receptors; format: binding; conditions: concentration of 10 μM
T2 construct: expressed in transfected cells
T2 sequence (P21554 whole entry): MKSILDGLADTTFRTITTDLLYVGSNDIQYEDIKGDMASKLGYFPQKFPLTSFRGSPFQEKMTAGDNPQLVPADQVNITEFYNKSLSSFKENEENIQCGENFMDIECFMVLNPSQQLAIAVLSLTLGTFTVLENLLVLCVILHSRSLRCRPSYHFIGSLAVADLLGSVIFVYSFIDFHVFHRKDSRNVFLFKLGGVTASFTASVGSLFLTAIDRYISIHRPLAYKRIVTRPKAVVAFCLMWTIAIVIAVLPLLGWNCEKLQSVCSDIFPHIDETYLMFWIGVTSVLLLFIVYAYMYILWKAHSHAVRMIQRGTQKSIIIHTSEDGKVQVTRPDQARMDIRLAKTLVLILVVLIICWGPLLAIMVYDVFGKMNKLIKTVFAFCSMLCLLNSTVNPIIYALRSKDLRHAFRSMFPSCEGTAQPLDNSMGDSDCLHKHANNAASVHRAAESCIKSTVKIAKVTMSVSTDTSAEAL
Experimental: as §1

CB2 receptors = biological target: T3, CB2 receptors (Homo sapiens, UniProt P34972); assay: Displacement of [3H]-WIN55,212-2 from a cell line transfected with CB2 receptors; format: binding; conditions: concentration of 10 μM
T3 construct: expressed in transfected cells
T3 sequence (P34972 whole entry): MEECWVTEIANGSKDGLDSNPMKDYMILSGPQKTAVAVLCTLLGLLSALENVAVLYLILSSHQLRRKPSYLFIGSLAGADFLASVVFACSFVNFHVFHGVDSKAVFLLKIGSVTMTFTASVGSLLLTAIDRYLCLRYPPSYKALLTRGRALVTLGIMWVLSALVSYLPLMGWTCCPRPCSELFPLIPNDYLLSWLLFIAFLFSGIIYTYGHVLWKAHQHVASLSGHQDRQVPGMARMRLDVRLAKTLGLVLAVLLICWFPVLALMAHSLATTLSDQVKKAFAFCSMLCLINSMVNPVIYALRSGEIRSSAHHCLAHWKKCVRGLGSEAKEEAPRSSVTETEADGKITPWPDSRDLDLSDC
Experimental: as §1

[1] = test system: formalin-evoked pain in the rat; assay: Formalin test (CPS-WST(0,1,2) pain score); format: in vivo
Experimental: All experiments conformed with British Home Office regulations. Male Wistar rats weighing 230-290 g were obtained from B&K. Animals were housed in group cages and maintained on a 12-hour light-dark cycle with ad libitum access to food and water. Each animal was used in one experiment only.
L-29 was a gift from D Lambert (see FIG. 1 for chemical structure). SR1 and SR2 were a gift from Sanofi and capsazepine was purchased from Tocris. All drugs were dissolved in 40% dimethyl sulphoxide (DMSO) and saline.
Rats were randomised into seven groups. Investigator JB carried out the dosing of the animals to conform with Home Office regulations, while investigator HJ carried out all other duties including scoring the behavioural test, she was blinded to the drugs given. All animals were acclimatised to the testing environment for at least 30 min prior to the experiment beginning. Each animal received a first intraperitoneal (i.p.) injection of either vehicle or antagonist and five minutes later a second i.p. injection of either vehicle or L-29. […] 10 min later all the animals received a formalin injection.
50 μl of 2.5% formalin was injected subcutaneously into the dorsum of the right hind paw via a 27G needle. The paw was then marked with permanent ink. The animal was immediately replaced in the observation chamber, a clear plexiglass box measuring 23 cm×18 cm×14 cm, with a mirror positioned underneath at 45° to allow an unobstructed view of the paw. Observations began as the rats were placed in the box and continued for 60 min. Their behaviour was rated according to the Composite Pain Score, Weighted Scores Technique (CPS-WST (0,1,2)), a validated pain behaviour scoring system for the rat formalin test (Watson et al 1997). The amount of time spent in each of 2 behavioural categories was measured for each consecutive 5 min period within the hour scored. Category 1, the injected paw is elevated and not in contact with any surface and category 2, the injected paw is licked, bitten or shaken. A weighted score was then obtained for each 5 min period and for phase 1 (0-15 min) and phase 2 (15-60 min), by using the formula below:
CPS-WST=(1×time in category 1)+(2×time spent in category 2)
Data was analysed using the one-way ANOVA test followed by Dunnett's test using the SigmaStat 2.3 computer package.

[2] = test system: rats rendered neuropathic by partial sciatic nerve ligation; assay: Thermal hyperalgesia (Hargreaves' device), partial sciatic nerve ligation model; format: in vivo, rat
Experimental: (§2) Male Wistar rats, weighing 250-350 g (mean 300 g) were housed at a constant temperature under a 14:10 light/dark cycle, with free access to food and water.
(§3) The animals were randomised into four experimental groups, with six animals in each group:
(§4) Group B. L-29 in a DMSO Vehicle in Three i.p. Doses: 0.1 mgkg^−1, 1 mgkg^−1, 10 mgkg^−1
(§5) In this study, six animals were allocated to each dose group and baseline limb withdrawal thresholds were recorded for each animal at t=0. This was immediately followed by the ip. administration of L-29 solution.
(§6) Limb withdrawal thresholds to all three modalities were recorded at t=0. Each animal then received i.p. injection of the antagonist in a 40% DMSO and saline solution, immediately followed by the administration of L-29 at a dose of 1 mgkg^−1 via the same route. Sensory testing resumed and limb withdrawal thresholds were recorded over the course of the experiment as described.
(§7) Following the original description for partial sciatic nerve ligation by Seltzer et al.^2, surgery was performed in equal number. Under inhalational anaesthesia using isoflurane and nitrous oxide, the left sciatic nerve was exposed at upper-thigh level and the dorsal third—half of the sciatic nerve tightly ligated with a 7-0 silk suture at a site just distal to the point at which the posterior biceps semitendinosus nerve branches off the sciatic nerve. Haemostasis was confirmed and the wound then closed with muscle and skin sutures and a small volume of 0.5% bupivicaine administered subcutaneously. A strict aseptic technique was maintained throughout. The animal was then recovered and returned to its housing environment and a post-operative check conducted the following day. See FIG. 12 for full description and protocol.
Behavioural tests included simple reflex withdrawal to mechanical, thermal and cold stimuli. […] Baseline sensory thresholds were measured pre-operatively on the day of surgery and on post-operative day eight. […] Sensory thresholds were recorded at time (t) 0, 20, 40, 60 and 80 minutes post drug administration.
Thermal hyperalgesia is assessed using a noxious infrared heat stimulus applied to the plantar surface of both hind paws as described by Hargreaves et al.^4 Paw withdrawal thresholds to a focused beam of radiant heat at a constant temperature of 46° C. and infrared intensity (of twenty for rats and thirty for mice) is measured. […] Sampling is repeated five times to each paw with three minutes between testing and a mean withdrawal threshold is calculated.
(§8) Statistical significance was determined for neuropathy by the paired t-test and for drug effects by the one-way ANOVA (Dunnett's test) (compared to post-operative values), both taking p<0.05 as statistically significant.

[3] = test system: rats rendered neuropathic by partial sciatic nerve ligation; assay: Mechanical allodynia (electronic von Frey), partial sciatic nerve ligation model; format: in vivo, rat
Experimental: as §2, §3, §4, §5, §6, §7
Behavioural tests included simple reflex withdrawal to mechanical, thermal and cold stimuli. Before commencing experiments, animals were allowed to acclimatise to the testing environment for at least 15 minutes until exploratory behaviour had ceased. In order to minimise bias, the experiment to be conducted was randomised (according to a predetermined random number table—see table 2) on the day of testing and the drug doses were drawn up and given by a separate investigator to the one scoring the behavioural tests who was blinded to the drugs given. Baseline sensory thresholds were measured pre-operatively on the day of surgery and on post-operative day eight. […] Sensory thresholds were recorded at time (t) 0, 20, 40, 60 and 80 minutes post drug administration. […]
as §8

[4] = test system: rats rendered neuropathic by partial sciatic nerve ligation; assay: Cold allodynia (acetone drop), partial sciatic nerve ligation model; format: in vivo, rat; conditions: for positive response to cold stimulus (declined from 100%): between 40-60 minutes post drug
WIN2 induced catalepsy = conditions: 1 mg/kg i.p.; cited from earlier work
[5] = antagonist 1 mgkg^−1 i.p. + L-29 1 mgkg^−1 i.p.

maximum inhibition of FAAH catalysed [3H]-AEA hydrolysis (FAAH): 67% | IC50 (FAAH): 3.39 µM | displacement of [3H]-CP55,940 in the CB1 assay (CB1 receptors): 13.3% | displacement of [3H]-WIN55,212-2 in the CB2 assay (CB2 receptors): 7.8%
SMILES: C=CCNC(=O)CCCCCCCCCCCCCCC [L-29, N-(2-propenyl)hexadecanamide]
pain behaviour v control ([1]; 0.1 mg/kg i.p.): not significantly different from control | pain behaviour v control (P<0.05) ([1]; 1 mg/kg i.p.): significantly attenuated pain behaviour | pain behaviour v control (P<0.05) ([1]; 10 mg/kg i.p.): significantly attenuated pain behaviour | pain behaviour in both phases of the formalin test ([1]; 0.1, 1 and 10 mg/kg i.p., 10 min before 2.5% formalin s.c.): dose-dependently inhibited | attenuation of thermal hyperalgesia ([2]; 0.1 mgkg^−1 i.p.): only at 40 minutes | attenuation of thermal hyperalgesia ([2]; 1 mgkg^−1 i.p.): attenuated later between 40 and 60 minutes post drug injection | attenuation of thermal hyperalgesia ([2]; 10 mgkg^−1 i.p., between 20 and 60 minutes post drug): Attenuation of thermal hyperalgesia was greatest | reversal of mechanical allodynia ([3]; 0.1 mgkg^−1 i.p.): only at 80 minutes post i.p drug administration | reversal of mechanical allodynia (mechanical sensory thresholds) ([3]; 1 mgkg^−1 i.p., at 20 minutes and 60 minutes post drug): significant increase in mechanical sensory thresholds | reversal of mechanical allodynia ([3]; 10 mgkg^−1 i.p.): No effect on mechanical allodynia | decline in positive response to cold stimulus ([4]; 0.1 mgkg^−1 i.p., between 20-40 minutes): decline by almost half | positive response to cold stimulus (declined from 100%) ([4]; 1 mgkg^−1 i.p.): 50% | positive response to cold stimulus (declined from 100%) ([4]; 10 mgkg^−1 i.p.): 50% | reversal of cold allodynia ([4]; all doses (0.1, 1, 10 mgkg^−1 i.p.)): did not yield a statistically significant reversal of cold allodynia

maximum inhibition of FAAH catalysed [3H]-AEA hydrolysis (FAAH): 78% | IC50 (FAAH): 5.01 µM | displacement of [3H]-CP55,940 in the CB1 assay (CB1 receptors): 23.8% | displacement of [3H]-WIN55,212-2 in the CB2 assay (CB2 receptors): 13.9%
SMILES: CCCCCCCCCCCCCCCC(=O)NCCO [PEA, Palmitoylethanolamide, reference compound]

SMILES: Cc1c(C(=O)NN2CCCCC2)nn(-c2ccc(Cl)cc2Cl)c1-c1ccc(Cl)cc1 [SR1, reference compound]
effect of receptor antagonist on antinociceptive effect of L-29 ([1]; phase 2 (15-60 min), antagonist 1 mg/kg i.p. prior to 1 mg/kg L-29): reverses the antinociceptive effect of L-29 | effect of co-administered antagonist on anti-hyperalgesic effect of L-29 (thermal) [2, 5]: appeared not to prevent the anti-hyperalgesic and anti-allodynic effects | effect of co-administered antagonist on anti-allodynic effect of L-29 (mechanical) [3, 5]: appeared not to prevent the anti-hyperalgesic and anti-allodynic effects | cold allodynia on co-administration of antagonist and L-29 [4, 5]: significant reduction in % positive response to cold stimulus | time to significant antagonism of WIN2 induced catalepsy (WIN2 induced catalepsy): ≤ 15 min

SMILES: Oc1cc2c(cc1O)CN(C(=S)NCCc1ccc(Cl)cc1)CCC2 [capsazepine, reference compound]
effect of receptor antagonist on antinociceptive effect of L-29 ([1]; either phase, SR2 1 mg/kg or capsazepine 10 mg/kg i.p. prior to 1 mg/kg L-29): do not significantly reverse the antinociceptive effect of L-29
